{
  "source": "paper PMC9024338",
  "about": "“Bruceine H Mediates EGFR-TKI Drug Persistence in NSCLC by Notch3-Dependent β-Catenin Activating FOXO3a Signaling” (Frontiers in Oncology, 2022)",
  "key": {"[1]": {"test_system": "PC-9/GR xenografts", "assay": "PC-9/GR xenografts in BALB/c nude mice", "type": "in vivo", "details": "BH 2.5 mg/kg, gefitinib 25 mg/kg, alone or co-administered, intragastric"}, "[2]": {"test_system": "PC-9/GR cells", "assay": "CCK-8 cell viability assay, PC-9/GR (gefitinib-resistant)", "type": "cell-based", "details": "Homo sapiens, 48 h, Figure 3B, unit only in axis title Concentration (μM)", "experimental": "The human NSCLC cell lines (A549, PC-9, and PC-9/GR) and other cell lines (16HBE and LO2) were purchased from the American Type Culture Collection (ATCC, Manassas, VA, USA). […] All cell lines were cultivated at 37°C under 5% CO2.\nThe Cell Counting Kit-8 assays (Beyotime, Shanghai, China) were performed to assess cell viability. […] Microplate readers (Infinite F500, Tecan, Mannedorf, Switzerland) were used to measure the absorbance (A) at 450 nm. All samples were assessed in triplicate."}, "[3]": {"assay": "Preliminary pharmacokinetics in SD rats", "type": "in vivo", "details": "2 mg/kg", "experimental": "We administered BH by gavage and intravenous administration to SD rats (male, 200–220 g, n = 6) after they had fasted for 12 h. For oral gavage, the BH was dissolved in DMSO/0.5% CMC-Na (5/95, v/v/), and for intravenous administration, it was dissolved in DMSO/0.9% NaCl (5/95, v/v/), and then the blood samples were collected at intervals to determine the pharmacokinetic (PK) profiles of SD rats."}},
  "note": "Values joined by “and” are separate entries in the source; they are usually repeats but may differ in a detail not shown here. Identical values can stand only once. Like-named read-outs stand apart in the source and are kept apart here.",
  "data": [
    {"smiles": "CC1=CC(=O)[C@@H](O)[C@]2(C)[C@H]3[C@@H](O)[C@H](O)[C@@]4(CO)OC[C@@]35[C@@H](C[C@@H]12)OC(=O)[C@H](O)[C@]54O", "note": "[BH, Bruceine H]", "values": [
      {"measurement": "tumor growth of PC-9/GR xenografts", "setting": "[1]", "result": "slight inhibitory effect"},
      {"measurement": "IC50", "setting": "[2]", "result": 21.7, "unit": "µM"},
      {"measurement": "Concentration of BH in rat plasma, individual rats No1-No3", "setting": "[3]; i.v. 2 mg/kg, 5 min", "result": "484.6 ng/mL and 469.6 ng/mL"},
      {"measurement": "Concentration of BH in rat plasma, individual rats No1-No3", "setting": "[3]; i.v. 2 mg/kg, 10 min", "result": "455.4 ng/mL and 450.6 ng/mL"},
      {"measurement": "Concentration of BH in rat plasma, individual rats No1-No3", "setting": "[3]; i.v. 2 mg/kg, 0.25 h", "result": "398.5 ng/mL and 384.2 ng/mL"},
      {"measurement": "Concentration of BH in rat plasma, individual rats No1-No3", "setting": "[3]; i.v. 2 mg/kg, 0.5 h", "result": "245.3 ng/mL and 234.1 ng/mL"},
      {"measurement": "Concentration of BH in rat plasma, individual rats No1-No3", "setting": "[3]; i.v. 2 mg/kg, 0.75 h", "result": "177.7 ng/mL and 180.4 ng/mL"},
      {"measurement": "Concentration of BH in rat plasma, individual rats No1-No3", "setting": "[3]; i.v. 2 mg/kg, 1 h", "result": "135.4 ng/mL and 119.6 ng/mL"},
      {"measurement": "Concentration of BH in rat plasma, individual rats No1-No3", "setting": "[3]; i.v. 2 mg/kg, 2 h", "result": "95.3 ng/mL and 98.5 ng/mL"},
      {"measurement": "Concentration of BH in rat plasma, individual rats No1-No3", "setting": "[3]; i.v. 2 mg/kg, 4 h", "result": "55.4 ng/mL and 51.2 ng/mL"},
      {"measurement": "Concentration of BH in rat plasma, individual rats No1-No3", "setting": "[3]; i.v. 2 mg/kg, 6 h", "result": "40.4 ng/mL and 42.1 ng/mL"},
      {"measurement": "Concentration of BH in rat plasma, individual rats No1-No3", "setting": "[3]; i.v. 2 mg/kg, 8 h", "result": "18.8 ng/mL and 25.4 ng/mL"},
      {"measurement": "Concentration of BH in rat plasma, individual rats No1-No3", "setting": "[3]; i.v. 2 mg/kg, 12 h", "result": "12.3 ng/mL and 21.3 ng/mL"},
      {"measurement": "Concentration of BH in rat plasma, individual rats No1-No3", "setting": "[3]; i.v. 2 mg/kg, 24 h", "result": "6.3 ng/mL and 10.2 ng/mL"},
      {"measurement": "AUC(0-inf)", "setting": "[3]; male, SD, rat, plasma, iv, SD rats, 2 mg/kg iv, read-out: AUC0–inf", "result": 1050, "unit": "ng·h/mL"},
      {"measurement": "AUC(0-t)", "setting": "[3]; male, SD, rat, plasma, iv, SD rats, 2 mg/kg iv, read-out: AUC0–last", "result": 944, "unit": "ng·h/mL"},
      {"measurement": "clearance", "setting": "[3]; male, SD, rat, plasma, iv, SD rats, 2 mg/kg iv, read-out: Clearance (CL) (converted)", "result": 31.9, "unit": "mL/min/kg"},
      {"measurement": "half-life", "setting": "[3]; male, SD, rat, plasma, iv, SD rats, 2 mg/kg iv, read-out: Half-life (T 1/2) (converted)", "result": 9.69, "unit": "h"},
      {"measurement": "Cmax", "setting": "[3]; male, SD, rat, plasma, iv, SD rats, 2 mg/kg iv, read-out: Maximum concentration (C max)", "result": 477, "unit": "ng/mL"},
      {"measurement": "Vd", "setting": "[3]; male, SD, rat, plasma, iv, SD rats, 2 mg/kg iv, read-out: Volume of distribution (V ss)", "result": 26.5, "unit": "L/kg"},
      {"measurement": "concentration at 5 min", "setting": "[3]; male, SD, rat, plasma, iv, i.v. 2 mg/kg, 5 min, read-out: Concentration of BH in rat plasma, Mean", "result": 477, "unit": "ng/mL"},
      {"measurement": "concentration at 5 min", "setting": "[3]; male, SD, rat, plasma, iv, i.v. 2 mg/kg, 5 min, read-out: Concentration of BH in rat plasma, individual rats No1-No3", "result": 478, "unit": "ng/mL"},
      {"measurement": "concentration at 10 min", "setting": "[3]; male, SD, rat, plasma, iv, i.v. 2 mg/kg, 10 min, read-out: Concentration of BH in rat plasma, Mean", "result": 442, "unit": "ng/mL"},
      {"measurement": "concentration at 10 min", "setting": "[3]; male, SD, rat, plasma, iv, i.v. 2 mg/kg, 10 min, read-out: Concentration of BH in rat plasma, individual rats No1-No3", "result": 420, "unit": "ng/mL"},
      {"measurement": "concentration at 0.25 h", "setting": "[3]; male, SD, rat, plasma, iv, i.v. 2 mg/kg, 0.25 h, read-out: Concentration of BH in rat plasma, Mean", "result": 384, "unit": "ng/mL"},
      {"measurement": "concentration at 0.25 h", "setting": "[3]; male, SD, rat, plasma, iv, i.v. 2 mg/kg, 0.25 h, read-out: Concentration of BH in rat plasma, individual rats No1-No3", "result": 371, "unit": "ng/mL"},
      {"measurement": "concentration at 0.5 h", "setting": "[3]; male, SD, rat, plasma, iv, i.v. 2 mg/kg, 0.5 h, read-out: Concentration of BH in rat plasma, Mean", "result": 236, "unit": "ng/mL"},
      {"measurement": "concentration at 0.5 h", "setting": "[3]; male, SD, rat, plasma, iv, i.v. 2 mg/kg, 0.5 h, read-out: Concentration of BH in rat plasma, individual rats No1-No3", "result": 228, "unit": "ng/mL"},
      {"measurement": "concentration at 0.75 h", "setting": "[3]; male, SD, rat, plasma, iv, i.v. 2 mg/kg, 0.75 h, read-out: Concentration of BH in rat plasma, Mean", "result": 177, "unit": "ng/mL"},
      {"measurement": "concentration at 0.75 h", "setting": "[3]; male, SD, rat, plasma, iv, i.v. 2 mg/kg, 0.75 h, read-out: Concentration of BH in rat plasma, individual rats No1-No3", "result": 172, "unit": "ng/mL"},
      {"measurement": "concentration at 1 h", "setting": "[3]; male, SD, rat, plasma, iv, i.v. 2 mg/kg, 1 h, read-out: Concentration of BH in rat plasma, Mean", "result": 127, "unit": "ng/mL"},
      {"measurement": "concentration at 1 h", "setting": "[3]; male, SD, rat, plasma, iv, i.v. 2 mg/kg, 1 h, read-out: Concentration of BH in rat plasma, individual rats No1-No3", "result": 125, "unit": "ng/mL"},
      {"measurement": "concentration at 2 h", "setting": "[3]; male, SD, rat, plasma, iv, i.v. 2 mg/kg, 2 h, read-out: Concentration of BH in rat plasma, Mean", "result": 99.1, "unit": "ng/mL"},
      {"measurement": "concentration at 2 h", "setting": "[3]; male, SD, rat, plasma, iv, i.v. 2 mg/kg, 2 h, read-out: Concentration of BH in rat plasma, individual rats No1-No3", "result": 104, "unit": "ng/mL"},
      {"measurement": "concentration at 4 h", "setting": "[3]; male, SD, rat, plasma, iv, i.v. 2 mg/kg, 4 h, read-out: Concentration of BH in rat plasma, Mean", "result": 54.9, "unit": "ng/mL"},
      {"measurement": "concentration at 4 h", "setting": "[3]; male, SD, rat, plasma, iv, i.v. 2 mg/kg, 4 h, read-out: Concentration of BH in rat plasma, individual rats No1-No3", "result": 58, "unit": "ng/mL"},
      {"measurement": "concentration at 6 h", "setting": "[3]; male, SD, rat, plasma, iv, i.v. 2 mg/kg, 6 h, read-out: Concentration of BH in rat plasma, Mean", "result": 40, "unit": "ng/mL"}
    ]}
  ]
}
